Measurements published in patent EP1403247A1, “N-Alkanoylphenylalanine derivatives” (F.HOFFMANN-LA ROCHE AG, priority 1997, dated 1999).

What was measured:
[1] = target: T1, VLA-4 (a4b1 integrin) (Homo sapiens, UniProt P05556+P13612); assay: Ramos (VLA-4) / VCAM-1 Cell-Based Screening Assay (Ramos-VCAM-1 cell adhesion assay); conditions: Calcein-AM labeled Ramos cells adhering to immobilized recombinant human VCAM-1; 45 min at room temperature
T1 construct: followed by 10 µl of Ramos cell-derived VLA-4; endogenous in cells; host or cells: Ramos cells (VLA-4 derived from them; method of extraction or purification not described)
Description: Ramos (VLA-4) / VCAM-1 Cell-Based Screening Assay Protocol
Calcein-AM was purchased from Molecular Probes Inc.
VLA-4 (a4b1 integrin) antagonist activity, defined as ability to compete with cell-surface VLA-4 for binding to immobilized VCAM-1, was quantitated using a Ramos-VCAM-1 cell adhesion assay. Ramos cells bearing cell-surface VLA-4, were labeled with a fluorescent dye (Calcein-AM) and allowed to bind VCAM-1 in the presence or absence of test compounds.
Initially, this entailed coating 96 well plates (Nunc Maxisorp) with recombinant human VCAM-1 (100 ng in 100 µl PBS), sealing each plate and allowing the plates to stand at 4°C for ~18 hr. The VCAM-coated plates were subsequently washed twice with 0.05% Tween-20 in PBS, and then blocked for 1hr (room temperature) with 200 µl of Blocking Buffer (1% BSA/0.02% thimerosal) to reduce non-specific binding. Following the incubation with Blocking Buffer, plates were inverted, blotted and the remaining buffer aspirated. Each plate was then washed with 300 µl PBS, inverted and the remaining PBS aspirated.
Test compounds were dissolved in 100% DMSO and then diluted 1:25 in VCAM Cell Adhesion Assay Buffer (4 mM CaCl2, 4 mM MgCl2 in 50 mM TRIS-HCl, pH 7.5) (final DMSO = 4%). […] 100 µl/well of each dilution was added to the VCAM-coated plates, followed by 100 µl of Ramos cells (200,000 cells/well in 1% BSA/PBS). […] Plates were inverted to remove non-adherent cells, blotted and 300 µl/well PBS added. Plates were again inverted, blotted and the remaining buffer gently aspirated. 100 µl Lysis Buffer (0.1% SDS in 50 mM TRIS-HCl, pH 8.5) was added to each well and agitated for 2 min on a rotary shaking platform.

[2] = target: T1, VLA-4 (a4b1 integrin); assay: VLA-4 / VCAM-1 Screening Assay (solid-phase, dual antibody ELISA); conditions: Ramos cell-derived VLA-4 binding to immobilized recombinant human VCAM-1; 1 mM MnCl2, 2 hr at 37 °C
Method: VLA-4 / VCAM-1 Screening Assay
VLA-4 antagonist activity, defined as ability to compete for binding to immobilized VCAM-1, was quantitated using a solid-phase, dual antibody ELISA. VLA-4 (a4b1 integrin) bound to VCAM-1 is detected by a complex of anti-integrin b1 antibody: HRP-conjugated anti-mouse IgG: chromogenic substrate (K-Blue). Initially, this entailed coating 96 well plates (Nunc Maxisorp) with recombinant human VCAM-1 (0.4 µg in 100 µl PBS), sealing each plate and then allowing the plates to stand at 4°C for ^~18 hr. […] On the day of assay, all plates are washed twice with VCAM Assay Buffer (200 µl/well of 50 mM Tris-HCl, 100 mM NaCl, 1 mM MnCl2, 0.05% Tween 20; pH 7.4). Test compounds are dissolved in 100% DMSO and then diluted 1:20 in VCAM Assay Buffer supplemented with 1mg/mL BSA (i.e., final DMSO = 5%). […] 100 µl per well of each dilution is added to the VCAM-coated plates, followed by 10 µl of Ramos cell-derived VLA-4. These plates are sequentially mixed on a platform shaker for 1 min, incubated for 2 hr at 37 °C, and then washed four times with 200 µl/well VCAM Assay Buffer. 100 µl of mouse anti-human integrin b1 antibody is added to each well (0.6 µg/mL in VCAM Assay Buffer + 1mg/mL BSA) and allowed to incubate for 1 hr at 37°C. At the conclusion of this incubation period, all plates are washed four times with VCAM Assay Buffer (200 µl/well). A corresponding second antibody, HRP-conjugated goat anti-mouse IgG (100 µl per well @ 1:800 dilution in VCAM Assay Buffer + 1mg/mL BSA), is then added to each well, followed by a 1 hr incubation at room temperature and concluded by three washes (200µl/well) with VCAM Assay Buffer. Color development is initiated by addition of 100 µl K-Blue per well (15 min incubation, room temp) and terminated by addition of 100 µl Red Stop Buffer per well. […] Results are calculated as % inhibition of total binding (i.e., VLA-4 + VCAM-1 in the absence of test compound).

T1 sequence (P13612 34-1032): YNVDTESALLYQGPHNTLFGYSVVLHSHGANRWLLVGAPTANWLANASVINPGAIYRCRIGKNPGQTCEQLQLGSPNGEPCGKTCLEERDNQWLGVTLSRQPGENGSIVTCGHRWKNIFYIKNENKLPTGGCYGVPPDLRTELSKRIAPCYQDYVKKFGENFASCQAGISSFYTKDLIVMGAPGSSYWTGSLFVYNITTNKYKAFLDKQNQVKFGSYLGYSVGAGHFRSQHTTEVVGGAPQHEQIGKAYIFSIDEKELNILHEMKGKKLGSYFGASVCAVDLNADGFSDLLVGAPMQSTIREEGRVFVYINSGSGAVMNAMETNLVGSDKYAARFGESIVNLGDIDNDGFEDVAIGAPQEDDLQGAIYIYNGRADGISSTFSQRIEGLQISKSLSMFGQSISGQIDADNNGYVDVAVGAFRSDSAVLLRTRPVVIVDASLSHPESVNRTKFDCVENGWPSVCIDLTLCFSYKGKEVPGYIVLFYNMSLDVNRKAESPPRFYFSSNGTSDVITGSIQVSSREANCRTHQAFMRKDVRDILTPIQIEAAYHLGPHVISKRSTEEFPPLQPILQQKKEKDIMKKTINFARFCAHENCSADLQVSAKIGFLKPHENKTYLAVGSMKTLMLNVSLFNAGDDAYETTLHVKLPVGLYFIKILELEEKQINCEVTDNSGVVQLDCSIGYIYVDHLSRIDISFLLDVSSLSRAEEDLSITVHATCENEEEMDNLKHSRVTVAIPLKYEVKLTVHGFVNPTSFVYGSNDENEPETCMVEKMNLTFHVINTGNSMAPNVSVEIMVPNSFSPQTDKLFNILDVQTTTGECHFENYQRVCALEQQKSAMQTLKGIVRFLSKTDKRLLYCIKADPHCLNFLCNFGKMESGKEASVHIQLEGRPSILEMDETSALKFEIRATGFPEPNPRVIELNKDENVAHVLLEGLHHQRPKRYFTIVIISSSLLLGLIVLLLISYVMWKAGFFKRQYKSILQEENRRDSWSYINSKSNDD
T1 sequence (P05556 21-798): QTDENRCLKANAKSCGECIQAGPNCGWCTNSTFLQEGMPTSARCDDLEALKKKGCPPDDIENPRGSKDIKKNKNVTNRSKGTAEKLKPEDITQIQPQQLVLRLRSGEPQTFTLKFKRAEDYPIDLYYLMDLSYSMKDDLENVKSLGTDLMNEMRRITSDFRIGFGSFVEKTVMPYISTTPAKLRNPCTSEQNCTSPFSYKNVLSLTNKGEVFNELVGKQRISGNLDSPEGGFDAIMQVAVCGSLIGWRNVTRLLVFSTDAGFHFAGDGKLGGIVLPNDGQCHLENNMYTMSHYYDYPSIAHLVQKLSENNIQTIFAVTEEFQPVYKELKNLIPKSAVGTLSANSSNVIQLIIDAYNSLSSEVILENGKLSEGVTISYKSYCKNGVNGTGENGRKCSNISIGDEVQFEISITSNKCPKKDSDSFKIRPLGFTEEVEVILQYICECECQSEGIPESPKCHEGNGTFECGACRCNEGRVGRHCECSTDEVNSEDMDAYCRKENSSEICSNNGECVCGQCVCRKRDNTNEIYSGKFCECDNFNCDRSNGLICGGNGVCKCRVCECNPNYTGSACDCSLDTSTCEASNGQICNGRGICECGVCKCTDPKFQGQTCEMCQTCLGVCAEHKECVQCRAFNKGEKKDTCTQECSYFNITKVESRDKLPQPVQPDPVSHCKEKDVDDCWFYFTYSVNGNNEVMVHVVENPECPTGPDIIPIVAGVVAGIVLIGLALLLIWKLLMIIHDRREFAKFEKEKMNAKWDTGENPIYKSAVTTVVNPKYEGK

Row | SMILES | IC50 [1] [nM] | IC50 [2] [nM]
1 | Cc1cc(CC(NC(=O)c2c(C)cccc2Cl)C(=O)O)ccc1NC(=O)c1c(Cl)cccc1Cl (stereo not drawn) [Example 123] | 316 | 1.7
2 | COc1ccc(Br)c(C(=O)NC(Cc2ccc(NC(=O)c3c(C)ccnc3C)cc2)C(=O)O)c1 (stereo not drawn) [Example 108] | 22 | 0.63
3 | O=C(NC(Cc1ccc(NC(=O)c2c(Cl)cccc2Cl)cc1)C(=O)O)c1ccccc1Cc1ccccc1 [Example 31, 4-[[(2,6-dichlorophenyl)carbonyl]amino]-N-[[(2-phenylmethyl)phenyl]carbonyl]-L-phenylalanine] |  | 0.51

Next, values leading:

Row | IC50 [1] [nM] | IC50 [2] [nM] | SMILES
4 | 439 | 4.5 | Cc1cc(CC(NC(=O)c2c(C)cccc2Cl)C(=O)O)ccc1NC(=O)CCc1cccc(O)c1 (stereo not drawn) [Example 120]
5 | 515 | 5.8 | Cc1cc(CC(NC(=O)c2c(C)cccc2Cl)C(=O)O)ccc1NC(=O)Cc1cccc(O)c1 (stereo not drawn) [Example 121]
